Test results taken from ChEMBL document CHEMBL1121823, “A novel connector linkage applicable in prodrug design” (J Med Chem, 1981).

Tests used:
Type in all cases: ADME
[1] = Half-life in aqueous buffer (0.05 M bistris, pH 6.9) in the absence of trypsin was determined at 25 degree C; conditions: aqueous buffer without trypsin
[2] = Half-life in aqueous buffer (0.05 M bistris, pH 6.9) in the presence of trypsin (2.5 ug/ml) was determined at 25 degree C
[3] = Half-life was determined; conditions: human

half-life [1] [h]	half-life [2] [min]	Structure (SMILES)	half-life [3] [min]
40	11	CC(C)(C)OC(=O)NC(CCCCN)C(=O)Nc1ccc(COC(=O)Nc2ccc([N+](=O)[O-])cc2)cc1 (stereo not drawn)	
		NC(=O)OCc1ccc(N)cc1	1.5
